Assay results published in patent US20220401591A1, “SYSTEM AND METHOD FOR QUANTITATIVE MAPPING OF MITOCHONDRIAL COMPLEX 1” (Lantheus Medical Imaging, Inc., priority 2012, published 2022).

Experiments:
[1] = cited from earlier work
[2] = system: mitochondrial complex I (MC-I); test: 100 minute dynamic ^18F-Flurpiridaz PET study of binding in the heart, 2-compartment reversible model fit; format: in vivo, cynomolgus monkey; conditions: myocardium ROI, 100 min data, 1.25 mCi
Excerpt: Measurement of myocardial blood flow and binding potential with ^18F-Flurpiridaz can be approached with standard methods that are well understood and available in our laboratory. We use a four parameter (K1, k2, k3, k4), two tissue compartment model (FIGS. 1A-1B) to describe Flurpiridaz kinetics. In this model the tracer can be in one of two states, either free, as the injected molecule, or bound to a receptor. In the case of ^18F-Flurpiridaz, previous studies have shown that it binds reversibly to mitochondrial complex I and this is supported by the data presented herein (see Example 3). Referring to FIGS. 1A-1B, the product of plasma concentration (Cp) and transport rate K1 is the force driving the tracer from capillary plasma to the free space (i.e., both free and nonspecifically bound). Conceptually, CF represents free flurpiridaz and CB represents Flurpiridaz binding to the MC-I complex. Corrections (not shown) are included for spillover of activity.
Symbolically, K1 is the plasma-to-tissue transport rate, FE, the product of flow and the unidirectional capillary extraction fraction, E. k2 is a rate constant summarizing the egress from tissue to plasma. The rate constants k3 (kon*B′max) and k4 (koff) provide a summary description of binding and release of tracer. This model, with nonlinear least squares, was used to fit 100 minutes of data obtained in a study of binding in the heart of a cynomolgus monkey (see Example 3). It is anticipated that a similar approach will be adequate for validation studies in pigs. Graphical methods can also be studied and applied for determination of BP, as they may be more appropriate for quantitative parametric images and future translation to human studies. For example, consider: Logan J, Fowler J S, Volkow N D, et al. Graphical analysis of reversible radioligand binding from time-activity measurements applied to [N-11C-methyl]-(-)-cocaine PET studies in human subjects. J Cereb Blood Flow Metab. Sep 1990; 10(5):740-747 and Zhou Y, Ye W, Brasic J R, Crabb A H, Hilton J, Wong D F. A consistent and efficient graphical analysis method to improve the quantification of reversible tracer binding in radioligand receptor dynamic PET studies. Neuroimage. Feb 1 2009; 44(3):661-670. Software programs for both approaches have been developed. Realistic Monte Carlo simulation and sensitivity analysis can be used to determine the precision obtained with a given dose of ^18F-Flurpiridaz and the experimental duration of the study. The structure of ^18F-Flurpiridaz is detailed in FIG. 1C.
Based on preliminary data from a primate study using ^18F-Flurpiridaz, the parameter precision for estimating the MBF and BPP was evaluated. […]

MC-I = test: ^18F-Flurpiridaz cardiac dynamic PET in infarcted pig, two-tissue compartment model; format: in vivo, domestic swine
Excerpt: In some aspects the model is further developed. The modeling approach is based upon the two-tissue compartment model that describes the uptake and retention of a radiotracer that diffusively exchanges between the blood and tissue, and binds reversibly to a specific target site (FIG. 1A-1B). In this framework the concentration of radiotracer is considered in three distinct states: in the plasma (CP) or one of two tissue states, freely suspended in the tissue fluids (CF) or specifically bound to the target site (CB). Four parameters (K1, k2 , k3, k4) detail the physiological mechanisms underlying uptake and binding. K1 and k2 pertain to the rates of tracer influx (proportional to blood flow) from the vasculature and efflux back out of the tissue, respectively. The ratio K1/k2 is the partition coefficient VND. which reflects non-specific uptake based on properties of the tissue that are not expected to vary regionally. The rate at which tracer binds to the target site is related by k3. The bimolecular nature of associative binding makes k3 a compound parameter, the product of kon (an intrinsic binding rate characteristic to the ligand and target site) and Bmax (the density of the binding sites). For reversibly binding interactions such as between ^18F-Flurpiridaz and MC-I, the return of specifically bound tracer to the free state is portrayed by k4. Here k4 is synonymous with the intrinsic binding dissociation constant koff, which is not expected to differ between regions. In our cardiac application, two additional parameters (fLV, fRV) account for signal contamination from blood pools in the adjacent left and right ventricles. Combinations of individual rate constants yield macroparameters that are robust and informative with regard to radiotracer binding at the target site. These macroparameters include total volume of distribution (VT=[K1/k2][1+k3/k4], the equilibrium ratio of tracer concentration in tissue vs. plasma) and several variants of binding potential (BP, proportional to the target density). […]

[3] = 17 segments fitted independently

Question: What does the source list for `CC(C)(C)n1ncc(OCc2ccc(COCCF)cc2)c(Cl)c1=O` [^18F-Flurpiridaz]?
Answer: unidirectional extraction fraction ([1]; at all physiological flow values): ~1; brain blood barrier passage ([1]; in vivo): crosses the brain blood barrier; k2 (egress from tissue to plasma) [2]: 0.075 (SD=4.7%); k3/k4 [2]: 1.65 (SD=4.0%); k4 (koff, release) [2]: 0.016 (SD=10.4%); K1 (plasma-to-tissue transport rate) ([2]; SD from asymptotic covariance matrix): 0.51 (SD=1.5%); reduction of K1 in damaged compared to healthy tissue (MC-I; [3]): about 50%; reduction of VT in damaged compared to healthy tissue (MC-I; [3]): about 75%; binding reduction (BP) in damaged tissues (MC-I; grand fit with common VND across regions): up to 90%
